Columns and labels:
[1] = target: Ribosomal protein S6 kinase alpha-3 (Homo sapiens, UniProt P51812); experiment: Selectivity interaction (Millipore kinase profiler) EUB0000124b RPS6KA3; conditions: at 10 µM
[2] = target: Platelet-derived growth factor receptor beta (Homo sapiens, UniProt P09619); experiment: Selectivity interaction (Millipore kinase profiler) EUB0000124b PDGFRB; conditions: at 10 µM
[3] = target: Serine/threonine-protein kinase 26 (Homo sapiens, UniProt Q9P289); experiment: Selectivity interaction (KinomeScan (DiscoverX)) EUB0001868a STK26; conditions: at 1 µM
[4] = system: Epidermal growth factor receptor (Homo sapiens), P00533 [UNDEFINED MUTATION]; experiment: Selectivity interaction (Ambit KINOMEscan and KiNATiv profiling in Jurkat cells) EUB0000090b EGFR; assay type: cell-based; conditions: at 1 µM
[5] = target: Hepatocyte growth factor receptor (Homo sapiens, UniProt P08581); experiment: Selectivity interaction (Kinase panel (Invitrogen)) EUB0000639a MET; conditions: at 200 nM
[6] = target: T1, Aurora kinase A (Homo sapiens) (UniProt O14965); experiment: Selectivity interaction (Kinase panel (literature)) EUB0001199aCl STK6; conditions: at 1 µM
T1 sequence (whole entry): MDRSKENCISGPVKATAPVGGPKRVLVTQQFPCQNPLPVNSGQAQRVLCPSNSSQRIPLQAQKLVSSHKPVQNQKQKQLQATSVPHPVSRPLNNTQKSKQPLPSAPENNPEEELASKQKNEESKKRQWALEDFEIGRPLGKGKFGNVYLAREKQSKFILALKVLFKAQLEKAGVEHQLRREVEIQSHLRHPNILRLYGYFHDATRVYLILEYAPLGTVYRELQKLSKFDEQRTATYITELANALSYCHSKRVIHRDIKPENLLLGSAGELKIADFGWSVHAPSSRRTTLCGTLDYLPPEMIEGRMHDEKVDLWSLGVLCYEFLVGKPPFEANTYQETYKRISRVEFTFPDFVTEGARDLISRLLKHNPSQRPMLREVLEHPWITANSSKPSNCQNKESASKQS

[7] = target: Mitogen-activated protein kinase kinase kinase 9 (Homo sapiens) (UniProt P80192); experiment: Selectivity interaction (Kinase panel (literature)) EUB0001199aCl MAP3K9; conditions: at 1 µM
[8] = target: Angiopoietin-1 receptor (Homo sapiens) (UniProt Q02763); experiment: (§1) Selectivity interaction (Kinase panel (Z-LYTE Assay)) EUB0001632a TEK; conditions: at 10 µM
[9] = system: Angiopoietin-1 receptor (Homo sapiens), Q02763 [Y897S]; experiment: as §1; conditions: at 10 µM
[10] = target: Phosphatidylinositol 4-phosphate 5-kinase type-1 alpha (Homo sapiens) (UniProt Q99755); conditions: at 10 µM
[11] = target: T2, Serine/threonine-protein kinase Nek3 (Homo sapiens) (UniProt P51956); experiment: Selectivity interaction (KinomeScan (DiscoverX)) EUB0000595a NEK3; conditions: at 10 µM
T2 sequence (whole entry): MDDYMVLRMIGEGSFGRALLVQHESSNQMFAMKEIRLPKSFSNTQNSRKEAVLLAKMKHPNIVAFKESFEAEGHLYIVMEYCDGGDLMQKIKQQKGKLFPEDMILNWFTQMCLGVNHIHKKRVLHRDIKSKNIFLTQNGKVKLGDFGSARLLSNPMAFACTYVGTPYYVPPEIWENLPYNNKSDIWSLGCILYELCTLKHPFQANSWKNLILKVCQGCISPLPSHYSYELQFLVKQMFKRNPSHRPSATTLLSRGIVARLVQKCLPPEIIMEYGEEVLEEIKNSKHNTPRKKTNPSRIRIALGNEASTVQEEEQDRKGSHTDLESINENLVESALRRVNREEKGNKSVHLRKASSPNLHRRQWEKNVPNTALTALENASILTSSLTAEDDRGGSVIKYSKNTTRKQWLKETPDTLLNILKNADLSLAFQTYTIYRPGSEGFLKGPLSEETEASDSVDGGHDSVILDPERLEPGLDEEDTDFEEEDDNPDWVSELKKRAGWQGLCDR

[12] = target: Tyrosine-protein kinase SYK (Homo sapiens, UniProt P43405); experiment: Selectivity interaction (KinomeScan (DiscoverX)) EUB0000595a SYK; conditions: at 10 µM
[13] = target: Tyrosine-protein kinase Fyn (Homo sapiens) (UniProt P06241); experiment: Selectivity interaction (KinomeScan (DiscoverX)) EUB0000229b FYN; conditions: at 10 µM
[14] = target: Macrophage-stimulating protein receptor (Homo sapiens, UniProt Q04912); experiment: Selectivity interaction (ProQinase) EUB0000171b MST1R
[15] = target: T3, Ankyrin repeat and protein kinase domain-containing protein 1 (Homo sapiens) (UniProt Q8NFD2); experiment: Selectivity interaction (KinomeScan (DiscoverX)) EUB0000092b ANKK1; conditions: at 10 µM
T3 sequence (whole entry): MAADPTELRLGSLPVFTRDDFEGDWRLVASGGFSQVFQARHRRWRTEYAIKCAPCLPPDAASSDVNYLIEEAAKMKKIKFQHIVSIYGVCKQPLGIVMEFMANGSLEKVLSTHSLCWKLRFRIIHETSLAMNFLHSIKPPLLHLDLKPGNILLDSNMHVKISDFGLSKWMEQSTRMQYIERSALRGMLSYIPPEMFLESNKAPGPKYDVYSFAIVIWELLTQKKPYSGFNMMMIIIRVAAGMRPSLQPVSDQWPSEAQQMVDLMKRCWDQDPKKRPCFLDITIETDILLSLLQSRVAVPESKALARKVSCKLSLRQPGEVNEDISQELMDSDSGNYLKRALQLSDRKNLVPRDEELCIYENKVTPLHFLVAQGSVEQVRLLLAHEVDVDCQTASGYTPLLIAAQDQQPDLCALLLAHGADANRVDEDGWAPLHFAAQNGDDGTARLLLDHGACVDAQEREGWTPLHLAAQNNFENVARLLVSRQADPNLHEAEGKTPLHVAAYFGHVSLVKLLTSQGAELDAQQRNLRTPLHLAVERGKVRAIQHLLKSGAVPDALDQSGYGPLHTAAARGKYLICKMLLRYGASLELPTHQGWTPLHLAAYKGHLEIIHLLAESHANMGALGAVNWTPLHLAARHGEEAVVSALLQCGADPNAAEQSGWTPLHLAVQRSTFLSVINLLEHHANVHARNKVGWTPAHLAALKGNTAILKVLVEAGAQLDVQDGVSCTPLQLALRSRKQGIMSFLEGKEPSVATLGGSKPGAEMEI

[16] = target: Angiopoietin-1 receptor (Homo sapiens) (UniProt Q02763); experiment: Selectivity interaction (KinomeScan (DiscoverX)) EUB0000655a TEK; conditions: at 10 µM
[17] = target: Microtubule-associated serine/threonine-protein kinase 3 (Homo sapiens) (UniProt O60307); experiment: Selectivity interaction (ActivX KiNativ screen (ex vivo kinase selectivity in human PBMCs)) EUB0001619a MAST3; assay type: cell-based; conditions: PBMC, at 1 µM
[18] = target: Glycogen synthase kinase-3 alpha (Homo sapiens, UniProt P49840); experiment: Selectivity interaction (KinomeScan (DiscoverX)) EUB0000618a GSK3A; conditions: at 10 µM
[19] = target: Myosin light chain kinase 2, skeletal/cardiac muscle (Homo sapiens) (UniProt Q9H1R3); experiment: Selectivity interaction (KinomeScan (DiscoverX)) EUB0000607a MYLK2; conditions: at 10 µM
Myosin light chain kinase 2, skeletal/cardiac muscle (Homo sapiens), sequence (Q9H1R3 whole entry): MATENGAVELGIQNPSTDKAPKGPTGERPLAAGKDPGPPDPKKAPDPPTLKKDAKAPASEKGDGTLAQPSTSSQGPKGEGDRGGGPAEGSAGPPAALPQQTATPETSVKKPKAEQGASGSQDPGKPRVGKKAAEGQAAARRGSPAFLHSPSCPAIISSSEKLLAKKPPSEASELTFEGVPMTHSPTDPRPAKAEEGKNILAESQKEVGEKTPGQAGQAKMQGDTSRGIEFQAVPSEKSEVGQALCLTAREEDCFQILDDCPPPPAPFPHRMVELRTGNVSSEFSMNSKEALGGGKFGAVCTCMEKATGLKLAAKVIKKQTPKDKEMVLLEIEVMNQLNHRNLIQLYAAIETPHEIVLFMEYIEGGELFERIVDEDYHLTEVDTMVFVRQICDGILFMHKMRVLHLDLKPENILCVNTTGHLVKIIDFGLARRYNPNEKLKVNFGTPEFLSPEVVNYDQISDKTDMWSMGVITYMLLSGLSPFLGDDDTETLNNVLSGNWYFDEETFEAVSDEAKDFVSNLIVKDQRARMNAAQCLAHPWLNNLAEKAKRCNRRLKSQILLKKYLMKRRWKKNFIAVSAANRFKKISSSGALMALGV

Angiopoietin-1 receptor (Homo sapiens), sequence (Q02763 whole entry): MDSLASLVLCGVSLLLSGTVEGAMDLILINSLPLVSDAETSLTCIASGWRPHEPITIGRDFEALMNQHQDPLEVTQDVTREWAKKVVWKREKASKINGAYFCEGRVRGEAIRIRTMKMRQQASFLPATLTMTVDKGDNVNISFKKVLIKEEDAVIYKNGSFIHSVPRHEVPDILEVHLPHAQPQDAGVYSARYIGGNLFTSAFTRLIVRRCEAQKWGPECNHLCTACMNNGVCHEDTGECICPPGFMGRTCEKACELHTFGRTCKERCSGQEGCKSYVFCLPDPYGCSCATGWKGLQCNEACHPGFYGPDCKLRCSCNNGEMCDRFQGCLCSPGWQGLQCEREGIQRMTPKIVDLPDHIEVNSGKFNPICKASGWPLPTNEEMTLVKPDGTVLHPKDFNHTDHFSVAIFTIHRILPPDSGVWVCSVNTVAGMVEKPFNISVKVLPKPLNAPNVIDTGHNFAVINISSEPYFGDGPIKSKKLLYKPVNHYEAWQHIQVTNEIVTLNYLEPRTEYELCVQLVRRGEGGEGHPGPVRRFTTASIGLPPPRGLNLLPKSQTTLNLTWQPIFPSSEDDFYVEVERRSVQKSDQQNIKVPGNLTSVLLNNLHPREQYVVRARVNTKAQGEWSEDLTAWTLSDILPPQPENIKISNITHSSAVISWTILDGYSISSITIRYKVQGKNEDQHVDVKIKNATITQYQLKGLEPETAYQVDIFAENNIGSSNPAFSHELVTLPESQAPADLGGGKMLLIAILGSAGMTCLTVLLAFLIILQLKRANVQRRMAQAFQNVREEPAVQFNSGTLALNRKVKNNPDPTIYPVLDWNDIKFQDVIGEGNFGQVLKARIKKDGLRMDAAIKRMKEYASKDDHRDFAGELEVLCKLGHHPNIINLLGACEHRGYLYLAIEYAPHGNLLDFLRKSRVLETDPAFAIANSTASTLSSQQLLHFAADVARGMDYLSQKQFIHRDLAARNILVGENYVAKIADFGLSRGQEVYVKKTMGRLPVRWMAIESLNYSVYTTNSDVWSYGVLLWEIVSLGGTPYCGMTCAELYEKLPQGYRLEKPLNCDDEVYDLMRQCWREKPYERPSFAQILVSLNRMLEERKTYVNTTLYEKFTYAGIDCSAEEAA
Macrophage-stimulating protein receptor, sequence (Q04912 25-304 limits assumed): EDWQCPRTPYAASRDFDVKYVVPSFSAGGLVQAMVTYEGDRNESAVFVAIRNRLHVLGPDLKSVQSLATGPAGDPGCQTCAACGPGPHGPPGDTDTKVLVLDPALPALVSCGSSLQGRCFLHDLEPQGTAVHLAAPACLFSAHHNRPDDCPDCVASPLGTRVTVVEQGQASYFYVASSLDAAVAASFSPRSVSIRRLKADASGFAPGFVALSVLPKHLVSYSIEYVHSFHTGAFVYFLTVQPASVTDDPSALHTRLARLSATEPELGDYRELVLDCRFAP
Macrophage-stimulating protein receptor, sequence (Q04912 310-1400 limits assumed): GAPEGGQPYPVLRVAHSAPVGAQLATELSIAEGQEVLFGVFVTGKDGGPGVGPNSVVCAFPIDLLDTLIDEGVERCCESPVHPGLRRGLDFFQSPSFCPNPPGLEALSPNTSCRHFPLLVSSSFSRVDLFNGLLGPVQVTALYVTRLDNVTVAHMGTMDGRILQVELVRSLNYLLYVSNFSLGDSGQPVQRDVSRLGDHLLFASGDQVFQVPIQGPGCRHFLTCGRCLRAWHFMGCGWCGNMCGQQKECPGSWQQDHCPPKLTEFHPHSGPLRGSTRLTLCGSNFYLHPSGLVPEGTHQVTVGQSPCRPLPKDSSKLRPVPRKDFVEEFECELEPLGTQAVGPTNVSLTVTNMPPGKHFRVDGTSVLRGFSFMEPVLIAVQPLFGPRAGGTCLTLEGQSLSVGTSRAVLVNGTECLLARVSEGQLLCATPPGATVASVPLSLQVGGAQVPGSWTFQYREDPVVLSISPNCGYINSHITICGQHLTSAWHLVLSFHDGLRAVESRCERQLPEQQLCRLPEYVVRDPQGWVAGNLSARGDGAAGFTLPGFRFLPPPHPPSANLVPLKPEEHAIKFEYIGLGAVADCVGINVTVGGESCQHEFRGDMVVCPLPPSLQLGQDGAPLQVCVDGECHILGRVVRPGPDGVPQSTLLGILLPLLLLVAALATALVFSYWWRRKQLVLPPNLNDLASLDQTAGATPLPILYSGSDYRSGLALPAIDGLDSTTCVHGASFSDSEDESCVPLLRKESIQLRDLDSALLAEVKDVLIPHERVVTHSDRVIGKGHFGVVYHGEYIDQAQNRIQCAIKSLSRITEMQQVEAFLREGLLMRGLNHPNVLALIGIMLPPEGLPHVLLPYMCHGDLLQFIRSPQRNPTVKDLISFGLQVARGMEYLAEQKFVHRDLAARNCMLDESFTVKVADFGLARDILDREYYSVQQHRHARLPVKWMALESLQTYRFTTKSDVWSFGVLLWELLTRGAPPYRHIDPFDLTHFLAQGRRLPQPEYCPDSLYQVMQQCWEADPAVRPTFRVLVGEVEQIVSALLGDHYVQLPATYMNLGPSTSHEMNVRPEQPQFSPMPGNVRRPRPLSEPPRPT
Phosphatidylinositol 4-phosphate 5-kinase type-1 alpha (Homo sapiens), sequence (Q99755 whole entry): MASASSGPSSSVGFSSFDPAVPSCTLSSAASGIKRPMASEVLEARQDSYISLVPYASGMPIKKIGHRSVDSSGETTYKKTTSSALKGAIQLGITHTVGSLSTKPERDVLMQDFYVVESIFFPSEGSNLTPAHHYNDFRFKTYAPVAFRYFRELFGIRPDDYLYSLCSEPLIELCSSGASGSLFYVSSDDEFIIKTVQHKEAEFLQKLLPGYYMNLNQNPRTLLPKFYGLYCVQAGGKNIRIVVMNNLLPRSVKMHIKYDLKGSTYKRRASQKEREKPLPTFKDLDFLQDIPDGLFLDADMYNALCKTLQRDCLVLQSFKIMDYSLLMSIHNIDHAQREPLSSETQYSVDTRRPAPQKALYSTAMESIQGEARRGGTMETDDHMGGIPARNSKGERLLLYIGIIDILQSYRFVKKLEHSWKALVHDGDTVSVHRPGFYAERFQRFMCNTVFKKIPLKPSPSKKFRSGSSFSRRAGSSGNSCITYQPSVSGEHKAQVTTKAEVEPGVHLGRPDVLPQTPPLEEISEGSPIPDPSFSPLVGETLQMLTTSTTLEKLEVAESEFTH
Platelet-derived growth factor receptor beta, sequence (P09619 whole entry): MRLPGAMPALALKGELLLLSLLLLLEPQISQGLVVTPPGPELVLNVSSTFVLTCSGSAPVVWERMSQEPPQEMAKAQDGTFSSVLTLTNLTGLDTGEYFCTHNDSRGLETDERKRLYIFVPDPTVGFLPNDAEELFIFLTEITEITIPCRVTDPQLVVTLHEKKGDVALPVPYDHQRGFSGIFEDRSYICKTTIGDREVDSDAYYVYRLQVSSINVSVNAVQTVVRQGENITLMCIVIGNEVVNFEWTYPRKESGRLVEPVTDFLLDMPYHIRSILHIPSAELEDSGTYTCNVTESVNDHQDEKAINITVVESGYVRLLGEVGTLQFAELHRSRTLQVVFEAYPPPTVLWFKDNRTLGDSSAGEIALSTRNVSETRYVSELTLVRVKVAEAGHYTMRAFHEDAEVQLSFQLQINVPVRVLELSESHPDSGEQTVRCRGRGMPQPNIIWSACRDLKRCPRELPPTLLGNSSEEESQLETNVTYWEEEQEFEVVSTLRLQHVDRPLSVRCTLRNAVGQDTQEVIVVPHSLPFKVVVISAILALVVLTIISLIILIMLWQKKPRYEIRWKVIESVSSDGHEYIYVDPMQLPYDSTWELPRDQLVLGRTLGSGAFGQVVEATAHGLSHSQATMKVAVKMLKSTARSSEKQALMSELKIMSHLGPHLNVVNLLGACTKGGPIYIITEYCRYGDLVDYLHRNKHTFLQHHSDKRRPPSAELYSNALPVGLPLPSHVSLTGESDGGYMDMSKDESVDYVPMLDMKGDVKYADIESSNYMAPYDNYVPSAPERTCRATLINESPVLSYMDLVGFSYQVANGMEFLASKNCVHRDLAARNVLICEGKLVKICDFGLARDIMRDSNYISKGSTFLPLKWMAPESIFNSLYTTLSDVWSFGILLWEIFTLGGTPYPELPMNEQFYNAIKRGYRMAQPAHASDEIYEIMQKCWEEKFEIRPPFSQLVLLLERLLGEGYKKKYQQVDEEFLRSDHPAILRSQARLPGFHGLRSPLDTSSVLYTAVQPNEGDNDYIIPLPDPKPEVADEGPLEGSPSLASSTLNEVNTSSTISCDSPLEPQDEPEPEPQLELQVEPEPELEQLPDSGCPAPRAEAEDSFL
Angiopoietin-1 receptor (Homo sapiens), Q02763 [Y897S], sequence (Q02763 whole entry Y897S): as the sequence (Q02763 whole entry) above, with Y897S counted along it

SMILES: CC(=O)Nc1cccc(-n2c(=O)n(C3CC3)c(=O)c3c(Nc4ccc(I)cc4F)n(C)c(=O)c(C)c32)c1
- % of control [1]: 94%
- % of control [2]: 111%

SMILES: Cc1cc(-c2ccnc(Nc3cnn(C)c3)n2)ccc1CNC(=O)N1CC(OC(C)C)C1
- % of control [3]: 42%

SMILES: CN(C)C/C=C/C(=O)Nc1ccc(C(=O)N2CCCC(Nc3ncc(Cl)c(-c4c[nH]c5ccccc45)n3)C2)cc1 (stereo not given)
- % of control [4]: 91%

SMILES: CC[C@@H]1[C@H](F)C(=O)N[C@@H]1COc1nccc2cc(C(N)=O)c(OC)cc12 [ZIMLOVISERTIB]
- % of inhibition [5]: 2.16%

SMILES: CN1Cc2nccc(-c3cn(C)nc3-c3ccc(F)cc3)c2C1=O
- % of inhibition [6]: -4%
- % of inhibition [7]: 2%

SMILES: Cn1cc(-n2cnc3c(NCc4nc5cc(Cl)c(Cl)cc5[nH]4)nc(N4CCOCC4)nc32)cn1
- % of control [8]: -5.98%
- % of control [9]: 0.243%

SMILES: COCC(=O)NC/C=C/c1ccc2ncnc(Nc3ccc(Oc4ccc(C)nc4)c(C)c3)c2c1 [CP-724714]
- % of control [10]: 88%
- % of control [11]: 95%
- % of control [12]: 100%

SMILES: COc1cc(N(C)c2ccnc3ccc(C(F)(F)F)cc23)cc(OC)c1OC
- % binding [13]: 100%

SMILES: C=CC(=O)Nc1cccc(C(=O)Nc2ccc(Nc3cc(-c4[nH]c(SC)nc4C)ccn3)cc2)c1
- % of control ([14]; at 1 µM): 92%
- % of control ([14]; at 5 µM): 104%

SMILES: CCC(=O)N1CCN(c2ccc(-n3c(=O)ccc4cnc5ccc(-c6cnc7ccccc7c6)cc5c43)cc2C(F)(F)F)CC1
- % of control [15]: 93%

SMILES: CN(C)CCOc1ccc(-c2nc(-c3ccncc3)c(-c3ccc4c(c3)CC/C4=N\O)[nH]2)cc1
- % of control [16]: 63%

SMILES: N#Cc1cccc(-c2c[nH]c3ncnc(N4CCOCC4)c23)c1
- % of inhibition [17]: 1%

SMILES: O[C@H]1CC[C@H](Nc2ncc3nc(Nc4c(F)cc(F)cc4F)n([C@H]4CCOC4)c3n2)CC1
- % of control [18]: 90%

SMILES: CNC(=O)Nc1ccc(-c2nc(N3CC4CCC(C3)O4)c3cnn(C4CCC5(CC4)OCCO5)c3n2)cc1
- % of control [19]: 100%

Source: ChEMBL document CHEMBL5465560, “Selectivity Literature for EUbOPEN Chemogenomic Library” (2024)
